Assays:
[1] = test system: patients with nephrolithiasis that were found to have hypercalciuria (>200 mg/24 hr); assay: 24 hour urine calcium before and on vitamin K2 (MK7, MK4) in nephrolithiasis patients with hypercalciuria; format: in vivo, human
From the text: Patients with hypercalciuria who were not on anticoagulants were routinely recommended vitamin K2 supplementation. […] All patients also received standard treatments for any other stone risk factor found in their work-up. As is routine, these patients were asked to repeat the 24 hr urine test, to evaluate response to treatment. […] This compared favorably to the 30-50% expected decrease in calcium when a thiazide diuretic is prescribed. See Martins, M. C., et al., Br J Urol, 1996. 78(2): p. 176-80. Furthermore, the calcium lowering effect of vitamin K2 was independent of the presence and treatment of other stone risk factors.
The average decrease in urine calcium in all eight patients was about 43%. […] (Table 1)

hypercalciuric subjects = settings: cited from earlier work
[2] = MK7 100-150 mcg daily or bid for at least 3 weeks

In the case of `CC(C)=CCC/C(C)=C/CC/C(C)=C/CC/C(C)=C/CC1=C(C)C(=O)c2ccccc2C1=O` [MK4], the “% difference of urine calcium, high dose MK4 vs low dose MK7” value ([1]; F 74, MK4 15 mg daily vs MK7 120 mcg daily, same background) is reported as −40%, the “High Dose MK4 Urine Calcium” value ([1]; F 74, same background regimen, changed from MK7 120 mcg daily to MK4 15 mg daily) is reported as 191 mg/24 hr and the “additional decrease in 24 hour urine calcium excretion” value ([1]; one patient, change from MK7 120 mcg daily to MK4 15 mg daily) is reported as “about 40%”.
In the case of `CC(C)=CCC/C(C)=C/CC/C(C)=C/CC/C(C)=C/CC/C(C)=C/CC/C(C)=C/CC/C(C)=C/CC1=C(C)C(=O)c2ccccc2C1=O` [MK7], the “On Vitamin K Urine Calcium” value ([1]; Case 1, no prior regimen, before 650 mg/24 hr, on allopurinol 300 mg daily + MK7 100 mcg daily) is reported as 262 mg/24 hr, the “% diff of urine calcium” value ([1]; Case 1, on allopurinol 300 mg daily + MK7 100 mcg daily vs before vitamin K) is reported as −60% and the “% diff of urine calcium” value ([1]; Case 2, MK7 50 mcg bid with KCitrate, MgOxide, MgCitrate, Vitamin B6, allopurinol vs before vitamin K) is reported as −54%. The “On Vitamin K Urine Calcium” value ([1]; Case 2, no prior regimen, before 312 mg/24 hr, on KCitrate 99 mg bid, MgOxide 90 mg bid, MgCitrate 90 mg bid, Vitamin B6 7.5 mg bid, allopurinol 300 mg daily, MK7 50 mcg bid) was 145 mg/24 hr, the “% diff of urine calcium” value ([1]; Case 3, KCitrate 200 mg daily + MK7 120 mcg bid vs before vitamin K) was −51% and the “On Vitamin K Urine Calcium” value ([1]; Case 3, no prior regimen, before 321 mg/24 hr, on KCitrate 200 mg daily + MK7 120 mcg bid) was 158 mg/24 hr. The “% diff of urine calcium” value ([1]; Case 4, KCitrate 1080 mg tid + MK7 100 mcg bid vs before vitamin K) was −61%, the “On Vitamin K Urine Calcium” value ([1]; Case 4, before KCitrate 1080 mg bid, 320 mg/24 hr, on KCitrate 1080 mg tid + MK7 100 mcg bid) was 124 mg/24 hr and the “On Vitamin K Urine Calcium” value ([1]; Case 5, before 326 mg/24 hr on allopurinol 300 mg daily, KCitrate, MgOxide, MgCitrate, Vitamin B6, on allopurinol 100 mg daily, same background + MK7 120 mcg bid) was 225 mg/24 hr. The “% diff of urine calcium” value ([1]; Case 6, MK7 120 mcg bid with HCTZ, KCitrate, MgOxide, MgCitrate, Vitamin B6 vs before vitamin K) was “+2%”, the “On Vitamin K Urine Calcium” value ([1]; Case 6, before HCTZ 12.5 mg daily, 332 mg/24 hr, on HCTZ 12.5 mg daily, KCitrate 99 mg bid, MgOxide 90 mg bid, MgCitrate 90 mg bid, Vitamin B6 7.5 mg bid, MK7 120 mcg bid) was 340 mg/24 hr and the “% diff of urine calcium” value ([1]; Case 7, MK7 150 mcg daily added to stable background regimen vs before vitamin K) was −73%. The “On Vitamin K Urine Calcium” value ([1]; Case 7, before 314 mg/24 hr on KCitrate, MgOxide, MgCitrate, Vitamin B6, HCTZ 25 mg bid, prednisone, vitD3, allopurinol, same regimen + MK7 150 mcg daily) was 84 mg/24 hr, the “% diff of urine calcium” value ([1]; Case 8, MK7 120 mcg daily with CaCitrate, KCitrate, MgOxide, MgCitrate, Vitamin B6 vs before vitamin K) was −15% and the “On Vitamin K Urine Calcium” value ([1]; Case 8, before CaCitrate 630 mg bid, 376 mg/24 hr, on CaCitrate 630 mg tid, KCitrate 99 mg bid, MgOxide 90 mg bid, MgCitrate 90 mg bid, Vitamin B6 7.5 mg bid, MK7 120 mcg daily) was 321 mg/24 hr. The “Low Dose MK7 UCa” value ([1]; F 74, CaCitrate 630 mg tid, KCitrate 99 mg bid, MgOxide 90 mg bid, MgCitrate 90 mg bid, Vitamin B6 7.5 mg bid, MK7 120 mcg daily) was 321 mg/24 hr, the “average decrease in urine calcium in all eight patients” value [1, 2] was “about 43%” and the “increase in urinary calcium in the one patient that showed no response” value [1, 2] was 2%. The “patients that exhibited a decrease in urinary calcium of greater than about 50%” value [1, 2] was 5 out of 8, the “% diff of urine calcium, mean” value ([1]; mean of cases 1-8, on vitamin K (MK7) vs before) was −43% and the “% diff of urine calcium, median” value ([1]; median of cases 1-8, on vitamin K (MK7) vs before) was −52%. For the same compound, the “average decrease in the excretion of calcium in the urine” value ([1]; seven of the eight patients, 24 hr urine) was 49%.
In the case of `CC1=C(C/C=C(\C)CCC[C@H](C)CCC[C@H](C)CCCC(C)C)C(=O)c2ccccc2C1=O` [vitamin K1], the “subjects that had a decrease in urinary calcium” value (hypercalciuric subjects; hypercalciuric subjects) is listed as 60% and the “average reduction in urinary calcium” value (hypercalciuric subjects; patients with a similar level of pre-treatment hypercalciuria) is listed as “less than 15%”.
In the case of vitamin K2, the “decrease of urinary calcium excretion” value ([1]; cases 1, 2 and 3, vitamin K administered together with other agents) is reported as > 50% and the “decrease in urine calcium levels” value ([1]; many patients, within a month of therapy) is reported as “more than 40%”.
